Results taken from patent publication US12421211B2, “Heterocyclic compounds” (Hoffmann-La Roche Inc., priority 2021, dated 2025).
Where a name gives a salt, the structure may show the parent alone.

These compounds were tested on Acinetobacter baumannii ATCC17961 (assay: Antimicrobial susceptibility testing: 90% growth inhibitory concentration (IC90) determination). Conditions: 90% growth inhibitory concentration, Acinetobacter baumannii ATCC17961, Iso-Sensitest broth, OD 600 nm over 16 h; read-out: ATCC 17961 IC90.
Assay type: cell-based
In short: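 Growth inhibition derived in log phase from OD600 kinetics (every 20 minutes, 16h, 35±2° C) of ATCC17961 in Iso-Sensitest medium, inoculum ~5×10^5 CFU/ml. Compounds tested as twofold series, 10 points (e.g. 50 to 0.097 μM final); IC90 and IC50 reported.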

IC90 [nM] | SMILES
197 | Cc1nn(CC(=O)Nc2ccc(F)nn2)cc1-c1ccc(-c2cnc(C(=O)Nc3ccc(C(=O)N4CCN(C(=O)C5CC[N+](CC(=O)O)(CC6CNC6)CC5)CC4)c(Cl)c3)n2C)c(F)c1F (stereo not drawn) [Example L6, cis 2-[1-(azetidin-3-ylmethyl)-4-[4-[2-chloro-4-[[5-[2,3-difluoro-4-[1-[2-[(6-fluoropyridazin-3-yl)aminol-2-oxo-ethyl]-3-methyl-pyrazol-4-yl]phenyl]-methyl-imidazole-2-carbonyl]amino]benzoyl]piperazine-1-carbonyl]piperidin-1-ium-1-yl]acetic acid; formate]
108 | Cc1nn(CCOC(F)F)cc1-c1ccc(-c2cnc(C(=O)Nc3ccc(C(=O)N4CCN(C(=O)C5CC[N+](CC(=O)[O-])(CC6CNC6)CC5)CC4)c(Cl)c3)n2C)c(F)c1F (stereo not drawn) [Example N4, cis 2-[1-(azetidin-3-ylmethyl)-4-[4-[2-chloro-4-[[5-[4-[1-[2-(difluoromethoxy)ethyl]-3-methyl-pyrazol-4-yl]-2,3-difluoro-phenyl]-1-methyl-imidazole-2-carbonyl]amino]benzoyl]piperazine-1-carbonyl]piperidin-1-ium-1-yl]acetate]

Same assay, conditions: Acinetobacter baumannii, ATCC17961, 16 h, 90% growth inhibitory concentration, Acinetobacter baumannii ATCC17961, Iso-Sensitest broth, OD 600 nm over 16 h; read-out: ATCC 17961 IC90

IC90 [nM] | SMILES
360 | Cc1nn(CCOC(F)F)c(C)c1-c1ccc(-c2cnc(C(=O)Nc3ccc(C(=O)N4CCN(C(=O)C5C[C@@H](O)C[N+]5(C)C)CC4)c(Cl)c3)n2C)c(F)c1F (stereo partly drawn) [Example K2, N-[3-chloro-4-[4-[(4R)-4-hydroxy-1,1-dimethyl-pyrrolidin-1-ium-2-carbonyl]piperazine-1-carbonyl]phenyl]-5-[4-[1-2-(difluoromethoxy)ethyl]-3,5-dimethyl-pyrazol-4-yl]-2,3-difluoro-phenyl]-1-methyl-imidazole-2-carboxamide; formate]
300 | Cc1nn(CC2CC2(F)F)c(C)c1-c1ccc(-c2cnc(C(=O)Nc3ccc(C(=O)N4CCN(C(=O)C5C[C@@H](O)C[N+]5(C)C)CC4)c(Cl)c3)n2C)c(F)c1F (stereo partly drawn) [Example K3, N-[3-chloro-4-[4-[(4R)-4-hydroxy-1,1-dimethyl-pyrrolidin-1-ium-2-carbonyl]piperazine-1-carbonyl]phenyl]-5-[4-[1-2,2-difluorocyclopropyl)methyl]-3,5-dimethyl-pyrazol-4-yl]-2,3-difluoro-phenyl]-1-methyl-imidazole-2-carboxamide; formate]
206 | Cc1nn(CC(=O)Nc2ccc(F)nn2)cc1-c1ccc(-c2cnc(C(=O)Nc3ccc(C(=O)N4CCN(C(=O)C5CC[N+](C)(C)CC5)CC4)c(Cl)c3)n2C)cc1 [Example L1, N-[3-chloro-4-[4-(1,1-dimethylpiperidin-1-ium-4-carbonyl)piperazine-1-carbonyl]phenyl]-5-[4-[1-[2-[(6-fluoropyridazin-3-yl)amino]-2-oxo-ethyl]-3-methyl-pyrazol-4-yl]phenyl]-1-methyl-imidazole-2-carboxamide; formate]
152 | Cc1ccc(NC(=O)NCCn2cc(-c3ccc(-c4cnc(C(=O)Nc5ccc(C(=O)N6CCN(C(=O)C7CC[N+](C)(C)CC7)CC6)c(Cl)c5)n4C)c(F)c3F)c(C)n2)cn1 [Example M1, N-[3-chloro-4-[4-(1,1-dimethylpiperidin-1-ium-4-carbonyl)piperazine-1-carbonyl]phenyl]-5-[2,3-difluoro-4-[3-methyl-1-[2-[(6-methyl-3-pyridyl)carbamoylamino]ethyl]pyrazol-4-yl]phenyl]-1-methyl-imidazole-2-carboxamide formate]
189 | Cc1c(-c2cnc(C(=O)Nc3ccc(C(=O)N4CCN(C(=O)CCC[N+](C)(CC(=O)O)CC5CNC5)CC4)c(Cl)c3)n2C)ccc(-c2cnn(CCOC(F)F)c2C)c1F (stereo not shown) [Example N1, azetidin-3-ylmethyl-(carboxymethyl)-[4-[4-[2-chloro-4-[[5-[4-[1-[2-(difluoromethoxy)ethyl]-5-methyl-pyrazol-4-yl]-3-fluoro-2-methyl-phenyl]-1-methyl-imidazole-2-carbonyl]amino]benzoyl]piperazin-1-yl]-4-oxo-butyl]-methyl-ammonium; formic acid; formate]

Same assay, conditions: Acinetobacter baumannii, ATCC17961, 16 h, read-out: ATCC 17961 IC90

SMILES | IC90 [nM]
Cc1nn(CC(=O)Nc2ccc(F)nn2)cc1-c1ccc(-c2cnc(C(=O)Nc3ccc(C(=O)N4CCN(C(=O)C5CC[N+](C)(C)CC5)CC4)c(Cl)c3)n2C)cc1F [Example L2, N-[3-chloro-4-[4-(1,1-dimethylpiperidin-1-ium-4-carbonyl)piperazine-1-carbonyl]phenyl]-5-[3-fluoro-4-[1-[2-[(6-fluoropyridazin-3-yl)amino]-2-oxo-ethyl]-3-methyl-pyrazol-4-yl]phenyl]-1-methyl-imidazole-2-carboxamide; formate] | 168
Cc1ccc(NC(=O)Cn2cc(-c3ccc(-c4cnc(C(=O)Nc5ccc(C(=O)N6CCN(C(=O)C7CC[N+](C)(C)CC7)CC6)c(Cl)c5)n4C)c(F)c3F)c(C)n2)nn1 [Example L3, N-[3-chloro-4-[4-(1,1-dimethylpiperidin-1-ium-4-carbonyl)piperazine-1-carbonyl]phenyl]-5-[2,3-difluoro-4-[3-methyl-1-[2-[(6-methylpyridazin-3-yl)amino]-2-oxo-ethyl]pyrazol-4-yl]phenyl]-1-methyl-imidazole-2-carboxamide; formate] | 264
COc1ccc(NC(=O)Cn2cc(-c3ccc(-c4cnc(C(=O)Nc5ccc(C(=O)N6CCN(C(=O)C7CC[N+](C)(C)CC7)CC6)c(Cl)c5)n4C)c(F)c3F)c(C)n2)nn1 [Example L4, N-[3-chloro-4-[4-(1,1-dimethylpiperidin-1-ium-4-carbonyl)piperazine-1-carbonyl]phenyl]-5-[2,3-difluoro-4-[1-[2-[(6-methoxypyridazin-3-yl)amino]-2-oxo-ethyl]-3-methyl-pyrazol-4-yl]phenyl]-1-methyl-imidazole-2-carboxamide; formate] | 106
Cc1nn(CC(=O)Nc2ccc(N3CCOCC3)nn2)cc1-c1ccc(-c2cnc(C(=O)Nc3ccc(C(=O)N4CCN(C(=O)C5CC[N+](C)(C)CC5)CC4)c(Cl)c3)n2C)c(F)c1F [Example L5, N-[3-chloro-4-[4-(1,1-dimethylpiperidin-1-ium-4-carbonyl)piperazine-1-carbonyl]phenyl]-5-[2,3-difluoro-4-[3-methyl-1-[2-[(6-morpholinopyridazin-3-yl)amino]-2-oxo-ethyl]pyrazol-4-yl]phenyl]-1-methyl-imidazole-2-carboxamide; formate] | 374
Cc1c(-c2cnc(C(=O)Nc3ccc(C(=O)N4CCN(C(=O)C5CC[N+](CC(=O)O)(CC6CNC6)CC5)CC4)c(Cl)c3)n2C)ccc(-c2cnn(CCOC(F)F)c2C)c1F (stereo not shown) [Example N2, 2-[1-(azetidin-3-ylmethyl)-4-[4-[2-chloro-4-[[5-[4-[1-[2-(difluoromethoxy)ethyl]-5-methyl-pyrazol-4-yl]-3-fluoro-2-methyl-phenyl]-1-methyl-imidazole-2-carbonyl]amino]benzoyl]piperazine-1-carbonyl]piperidin-1-ium-1-yl]acetic acid; formate] | 183
Cc1c(-c2cnc(C(=O)Nc3ccc(C(=O)N4CCN(C(=O)CCC[N+](C)(CCCN)CC(=O)O)CC4)c(Cl)c3)n2C)ccc(-c2cnn(CCOC(F)F)c2C)c1F (stereo not shown) [Example N3, 3-aminopropyl-(carboxymethyl)-[4-[4-[2-chloro-4-[[5-[4-[1-[2-(difluoromethoxy)ethyl]-5-methyl-pyrazol-4-yl]-3-fluoro-2-methyl-phenyl]-1-methyl-imidazole-2-carbonyl]amino]benzoyl]piperazin-1-yl]-4-oxo-butyl]-methyl-ammonium; formate] | 352
